Results published in patent publication US4149007A, “C14 Phenyl-substituted derivatives of prostaglandin analogues” (Miles Laboratories, Inc., priority 1977, dated 1979).

Tests used:
rat uterus = test: Effects on the rat uterus in vitro; type: cell-based; details: dose producing response 50% that of carbachol
Method: (B) effect on the rat uterus in vitro;
The uterine stimulant effect of test compounds was determined in segments of uterus obtained from rats (140-160 g) pretreated subcutaneously with 1 mg/kg of diethylstilbesterol 18 hours before the experiment. The tissues were placed in 10 ml chambers filled with de-Jalon solution at 29° C., were aerated and bubbled with 95% O2 and 5% CO2, and were prepared for isometric recording with force displacement transducers. Preparations were stretched to an initial tension of 1 g and were left undisturbed for 30 minutes. Carbachol (1 mcg/ml) was then added to the bath and a response was recorded. After a ten minute interval the carbachol procedure was repeated. Responses to increasing concentrations of a test compound (0.001 to 10 mcg/ml with one log intervals) were then recorded every 10 minutes. Preparations were washed four times after each response. All doses of compounds were administered in a 0.1 ml volume. Because it has been observed that the magnitude of the second response to carbachol (approximately 10% greater than the first) is close to the maximal response of the tissue, such value was taken as a measure of the sensitivity of a particular segment. Responses to each concentration of the test compound were expressed in terms of percentage of the second response to carbachol and the ED50 (dose producing a response 50% that of carbachol) was calculated graphically.
Activity was scored according to the following scale: […]

human platelet = test: Inhibition of human platelet aggregation in vitro; type: cell-based; details: human platelet rich plasma, collagen-induced
Method: (E) effect on human platelet aggregation in vitro; and
The ability of test compounds to inhibit platelet aggregation was determined by a modification of the turbidometric technique of Born, G. V. R. (Nature, 194: 927 [1962]). Blood was collected from human volunteers, who had not ingested aspirin or aspirin-containing products within the preceding two weeks, in heparinized containers and was allowed to settle for one (1) hour. The platelet rich plasma (prp) supernates were collected and pooled. Siliconized glassware was used throughout.
In a representative assay, 1.9 ml of PRP and 0.2 ml of test compound at the appropriate concentration ([…]), or 0.2 ml of distilled water (control procedure) were placed in sample cuvettes. The cuvettes were placed in a 37° C. incubation block for 15 minutes, and then in a spectrophotometer linked to a strip chart recorder. After 30-60 seconds, 0.2 ml of a solution, prepared by diluting a calf-skin collagen solution 1:9 with Tyrodes' Solution, was added to each cuvette. Platelet aggregation was evidenced by a decrease in optical density.
An ED50 value was then determined graphically.

chick rectum = test: Cascade assay: chick rectum; type: cell-based; details: in vitro, smooth muscle stimulant ED50 scored
Method: (§1) (A) effects on the rat stomach, rat colon, chick rectum, and rabbit aorta in vitro (cascade assay);
(§2) The smooth muscle stimulant effects of test compounds were determined simultaneously in four different tissues that are known to be reactive to naturally occurring prostaglandins. Segments of rat stomach fundus, rat colon, chick rectum and rabbit aortic strip were obtained as described by: Vane, J. R., Brit. J. Pharmacol., 12: 344 (1957); Regoli, D. and Vane, J. R., Brit. J. Pharmacol., 23: 351 (1964); Mann, M. and West, G. B., Brit. J. Pharmacol., 5: 173 (1950); and Furchgott, R. F. and Bhadrakom, R., J. Pharmacol. Exper. Ther., 108: 129 (1953). One end of each preparation was tied to the bottom of a 10 ml tissue chamber and the other to a force displacement transducer (Grass FT-03) for continuous tension recording. The stomach, colon, and rectum segments were stretched to an initial tension of 1 g, while the aortic strip was subjected to 4 g. All preparations were left undisturbed for 1 hour prior to testing. […]
(§3) Test compounds were diluted from stock solutions so as to administer quantities ranging from 0.0001 to 100,000 ng in a volume of 0.5 ml. […] Maximal increases in tension after each dose were measured and the results were used to plot dose-response curves. […]
(§4) Activity in each tissue was scored according to the following scale: […]

rat colon = test: Cascade assay: rat colon; type: cell-based; details: in vitro, smooth muscle stimulant ED50 scored
Method: as §1, §2, §3, §4

rat = test: Effects on gastric secretion in the rat; type: in vivo; details: pylorus ligated, 1.5 mg/kg s.c. twice (total 3.0 mg/kg), 4 hours
Method: (F) effect on gastric secretion in the rat;
A procedure based on that described by Lipman, W. (J. Pharm. Pharmacol., 21: 335 [1968]) was used to assess the influence of test compounds on gastric secretion. Rats of one sex weighing 150 to 200 g were randomly divided into groups of six animals each and fasted for 48 hours previous to the experiments, water being available ad libitum. The animals were anesthetized with ether, the abdomen opened through a midline incision, and the pylorus ligated. Test compounds were diluted from stock solution so as to administer a dose of 1.5 mg/kg in a volume equivalent to 1 ml/kg. Subcutaneous injections were applied immediately after surgery and again 2 hours later, so that a total dose of 3.0 mg/kg was administered. Dilutions were made with phosphate buffer (pH 7.38) as recommended by Lee et al. (Prostaglandins, 3: 29 [1973]) in order to insure adequate stability of drugs at the subcutaneous depot. […]
Four hours after pyllric ligation the animals were killed with ether, the cardias ligated, and the stomachs removed. The volume of gastric secretion was measured and the contents centrifuged at 5000 rpm for 10 minutes. […]
Volume and total acid values of the treated group were compared with those of the controls […]. Antisecretory activity was scored according to the following scale: […]

rabbit aortic strip = test: Cascade assay: rabbit aortic strip; type: cell-based; details: in vitro, smooth muscle stimulant ED50 scored
Method: as §1, §2, §3, §4

rat stomach fundus = test: Cascade assay: rat stomach fundus; type: cell-based; details: in vitro, smooth muscle stimulant ED50 scored
Method: as §1, §2, §3, §4

tracheal smooth muscle = details: in vitro, most mammalian respiratory tracts; cited from earlier work
[1] = system: motor pathways in the central nervous system; details: cited from earlier work
[2] = system: female reproductive system; details: cited from earlier work; for labor / abortion effect: inducing labor, early pregnancy
adrenal glands = details: hypophysectomized rats; cited from earlier work
growth hormone = details: rats; cited from earlier work

Q: Which “Rat Uterus: activity value (ED50)” value (rat uterus) does the source give for `CCCCC[C@@H](O)/C(=C/C1CCC(=O)C1C/C=C\CCCC(=O)O)c1ccccc1` (mixture of isomers) [Example 11, dl-14-Phenyl-15R-hydroxy-9-oxoprosta-5Z-13E-dien-1-oic acid] here?
A: 0 (>10)

Q: Which “Rat Uterus: activity value (ED50)” value (rat uterus) does the source give for `CCCCCC(O)/C(=C/C1CCC(=O)C1CCCCCCC(=O)OC)c1ccccc1` (racemic) [Example 5, Methyl dl-14-phenyl-15R,S-hydroxy-9-oxoprost-13E-en-1-oate] here?
A: 0 (>10)

Q: Which “Rat Uterus: activity value (ED50)” value (rat uterus) does the source give for `CCCCC[C@H](O)/C(=C/C1CCC(=O)C1C/C=C\CCCC(=O)O)c1ccccc1` (mixture of isomers) [Example 10, dl-14-Phenyl-15S-hydroxy-9-oxoprosta-5Z,13E-dien-1-oic acid] here?
A: 0 (>10)

Q: For `CCCCCC(O)/C(=C/[C@@H]1[C@@H](C/C=C\CCCC(=O)O)[C@@H](O)C[C@H]1O)c1ccccc1` (stereo partly drawn) [Example 14, 14-Phenyl-9α,11α,15R,S-trihydroxyprosta-5Z,13E-dien-1-oic acid], which “Rat Uterus: activity value (ED50)” value (rat uterus) is on record?
A: 0 (>10)

Q: With `CCCCC[C@H](O)/C(=C/[C@H]1[C@H](O)CC(=O)[C@@H]1C/C=C\CCCC(=O)OCC)c1ccccc1` [Example 7B, Ethyl-14-Phenyl-11α,15S-dihydroxy-9-oxoprosta-5Z-13E-dien-1-oate] as the compound, how does the “Rat Uterus: activity value (ED50)” value (rat uterus) read?
A: 0 (>10)

Q: Which “Rat Uterus: activity value (ED50)” value (rat uterus) does the source give for `CCCCC[C@@H](O)/C(=C/C1CCC(=O)C1C/C=C\CCCC(=O)OC)c1ccccc1` (mixture of isomers) [Example 8, Methyl dl-14-phenyl-15R-hydroxy-9-oxoprosta-5,13E-dien-1-oate] here?
A: 0 (>10)

Q: For `CCCCC[C@H](O)/C(=C/C1CCC(=O)C1C/C=C\CCCC(=O)OC)c1ccccc1` (mixture of isomers) [Example 9, Methyl dl-14-phenyl-15S-hydroxy-9-oxoprosta-5Z,13E-dien-1-oate], which “Rat Uterus: activity value (ED50)” value (rat uterus) is on record?
A: 0 (>10)

Q: What does the source list for `CCCCC[C@@H](O)/C(=C/C1C=CC(=O)C1CCCCCCC(=O)O)c1ccccc1` (stereo partly drawn) [Example 12, 14-Phenyl-15R-hydroxy-9-oxo-ent-prosta-10,13E-dien-1-oic acid]?
A: Platelet Aggregation: activity value (ED50) (human platelet): 1 (>0.1 and ≤1.0); Cascade, Rectum: activity value (ED50) (chick rectum): 0 (>10000); Rat Uterus: activity value (ED50) (rat uterus): 0 (>10); Cascade, Colon: activity value (ED50) (rat colon): 0 (>10000); Gastric Secretion: activity value (% decrease in acidity) (rat): 0 (<26); Cascade, Aorta: activity value (ED50) (rabbit aortic strip): 0 (>10000); Cascade, Stomache: activity value (ED50) (rat stomach fundus): 0 (>10000)

Q: With `CCCCC[C@H](O)/C=C/[C@@H]1[C@@H](C/C=C\CCCC(=O)O)[C@@H](O)C[C@H]1O` [PGF2α] as the compound, how does the “effect on tracheal smooth muscle” value (tracheal smooth muscle) read?
A: contracts such smooth muscle

Q: And the “transmission along motor pathways in the central nervous system” value [1]?
A: facilitates transmission along motor pathways in the central nervous system

Q: What about the “fertility / gestation effect” value ([2]; female reproductive system) of the same compound?
A: has contragestational effects

Q: What about the “labor / abortion effect” value [2] of the same compound?
A: induces spontaneous abortions in early pregnancy

Q: For `CCCCC[C@H](O)/C(=C/[C@H]1[C@H](O)CC(=O)[C@@H]1CCCCCCC(=O)O)c1ccccc1` [Example 2, 14-Phenyl-11α,15S-dihydroxy-9-oxoprost-13E-en-1-oic acid], which “Rat Uterus: activity value (ED50)” value (rat uterus) is on record?
A: 0 (>10)

Q: With `CCCCC[C@@H](O)/C(=C/[C@H]1[C@H](O)CC(=O)[C@@H]1CCCCCCC(=O)O)c1ccccc1` [Example 3, 14-phenyl-11α,15R-dihydroxy-9-oxoprost-13E-en-1-oic acid] as the compound, how does the “Rat Uterus: activity value (ED50)” value (rat uterus) read?
A: 0 (>10)

Q: What does the source list for `CCCCC[C@H](O)/C=C/[C@H]1[C@H](O)CC(=O)[C@@H]1C/C=C\CCCC(=O)O` [PGE2]?
A: effect on tracheal smooth muscle (tracheal smooth muscle): relax; steroidogenesis in the adrenal glands (adrenal glands): stimulate stereoidogenesis in the adrenal glands; release of the growth hormone (growth hormone): increase the release of the growth hormone; labor / abortion effect [2]: produces potent oxytocic effects in inducing labor
